Here are results for 28 compounds from patent publication US20240270751A1, “Pyrazolopyridinone Compounds” (BeiGene Ltd., priority 2021, published 2024).

Assay [1] deals with DGKα (Homo sapiens (Human), UniProt P23743). Nature of the assay: Biochemical DGK IC50 assay, DGKα ADP-Glo assay. The settings on record: 7.5 nM enzyme, 140 μM ATP, 80 μM DAG. How it is done: (§1) Enzymatic reactions of DGKζ, DGKα and DGKδ were performed using ADP-Glo assay with lipid micelle substrate. […] Full length DGKα (D21-10BG, SignalChem) and full length DGKδ (D23-10G, SignalChem) were purchased. Lipid micelle was prepared by dissolving DAG (Sigma, 317505-10MG) and PS (Sigma, P7769-100MG) with chloroform which was furtherly removed by rotary evaporation. The resulted product was resuspended in buffer containing 25 mM HEPES pH 7.0, 0.5 mM EDTA and 160 mM Octyl β-D glucopyranoside by vigorous mixing and ultrasonic (IID, Scientz).
Sequence of DGKα (P23743 whole entry): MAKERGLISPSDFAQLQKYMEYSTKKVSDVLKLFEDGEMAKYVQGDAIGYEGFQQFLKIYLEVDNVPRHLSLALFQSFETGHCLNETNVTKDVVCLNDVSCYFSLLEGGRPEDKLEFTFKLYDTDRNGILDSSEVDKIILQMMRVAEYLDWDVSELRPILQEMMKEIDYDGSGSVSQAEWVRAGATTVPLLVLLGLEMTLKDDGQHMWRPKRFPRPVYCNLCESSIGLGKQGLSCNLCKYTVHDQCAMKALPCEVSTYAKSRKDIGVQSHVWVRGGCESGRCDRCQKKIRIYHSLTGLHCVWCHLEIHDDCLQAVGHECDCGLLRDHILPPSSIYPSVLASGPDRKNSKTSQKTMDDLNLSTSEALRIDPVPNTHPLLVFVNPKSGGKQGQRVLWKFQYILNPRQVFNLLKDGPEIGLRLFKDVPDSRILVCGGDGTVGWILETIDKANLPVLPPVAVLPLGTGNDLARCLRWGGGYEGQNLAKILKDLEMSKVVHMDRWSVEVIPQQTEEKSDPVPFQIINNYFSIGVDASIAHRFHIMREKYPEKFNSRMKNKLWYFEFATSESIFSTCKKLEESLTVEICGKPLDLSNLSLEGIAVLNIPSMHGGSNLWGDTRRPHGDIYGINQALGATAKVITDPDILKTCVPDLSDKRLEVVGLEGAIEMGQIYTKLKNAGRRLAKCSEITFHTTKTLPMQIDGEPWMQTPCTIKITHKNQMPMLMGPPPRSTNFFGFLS
(§2) The ranges of compounds final concentration were 1.55˜10000 nM or 23.3˜150000 nM. 3 μL 2× enzyme solution was added to wells.
On the technique in general: In ADP-Glo the light output rises with the ADP produced.

The target in assay [2] is DGKζ (Homo sapiens (Human), UniProt Q13574). Nature of the assay: Biochemical DGK IC50 assay, DGKζ ADP-Glo assay. The settings on record: 0.5 nM enzyme, 140 μM ATP, 80 μM DAG; read-out: DGKζ ADP-Glo assay IC50. How it is done: as §1, §2
Sequence of DGKζ (Q13574 other isoform, or with tags, fused parts or gaps): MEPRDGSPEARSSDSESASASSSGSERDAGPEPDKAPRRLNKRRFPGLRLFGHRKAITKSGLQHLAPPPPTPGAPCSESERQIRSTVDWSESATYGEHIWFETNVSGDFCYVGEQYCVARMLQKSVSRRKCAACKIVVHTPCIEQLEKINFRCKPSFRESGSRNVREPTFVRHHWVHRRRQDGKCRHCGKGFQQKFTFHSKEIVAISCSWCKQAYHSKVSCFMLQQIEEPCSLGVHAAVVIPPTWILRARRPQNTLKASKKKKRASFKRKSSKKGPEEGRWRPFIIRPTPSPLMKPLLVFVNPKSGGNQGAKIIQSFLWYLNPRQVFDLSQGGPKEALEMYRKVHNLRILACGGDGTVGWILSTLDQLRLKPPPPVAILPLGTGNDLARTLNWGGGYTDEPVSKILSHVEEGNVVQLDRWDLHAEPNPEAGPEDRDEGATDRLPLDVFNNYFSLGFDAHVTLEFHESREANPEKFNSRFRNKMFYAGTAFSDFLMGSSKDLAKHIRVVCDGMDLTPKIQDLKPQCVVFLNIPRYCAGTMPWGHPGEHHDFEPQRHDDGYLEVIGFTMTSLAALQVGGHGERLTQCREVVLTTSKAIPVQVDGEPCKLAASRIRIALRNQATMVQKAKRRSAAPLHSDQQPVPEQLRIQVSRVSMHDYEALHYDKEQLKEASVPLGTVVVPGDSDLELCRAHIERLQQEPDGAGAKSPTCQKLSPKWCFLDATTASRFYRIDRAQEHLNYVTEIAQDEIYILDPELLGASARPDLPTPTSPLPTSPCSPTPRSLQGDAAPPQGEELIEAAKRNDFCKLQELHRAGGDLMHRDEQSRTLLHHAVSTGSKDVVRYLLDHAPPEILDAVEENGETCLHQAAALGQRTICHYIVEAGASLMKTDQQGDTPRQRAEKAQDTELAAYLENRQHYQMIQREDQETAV
Human His-TEV-DGK-zeta-pFastBac1 and human baculovirus samples was generated using the Bac-to-Bac baculovirus expression system (Invitrogen) according to the manufacturer's protocol. The DNA used for expression of DGK-zeta, have SEQ ID Nos: 1. Baculovirus amplification was achieved using infected SF9 cells at 1:2000 virus/cells ratios, and grown for 96 hours at 27° C. post-transfected.
The expression scaled up for each protein was carried out in the […] from CORNING. 4 L of 3×10^6 cells/mL Sf9 cells (Expression System, Invitrogen) grown in SF900™ II SFM insect medium (Expression System) was infected with virus stock at 1:200 virus/cells ratio, and grown for 48 hours at 27° C. post-transfection. The infected cell culture was harvested by centrifugation at 6000 rpm for 15 min 4° C. in a SORVALL LYNX6000 centrifuge. The cell pellets were stored at −80° C.
Full length human DGKζ produced as described above, was purified from Sf9 baculovirus-infected insect cell paste. The cells were lysed using sonication method, and the lysates were clarified by centrifugation.

For the compound `CC[C@@H]1CN(c2c(C#N)c(=O)n(C)c3cn(CC#N)nc23)[C@@H](C)CN1C(C)c1ccc2nccnc2c1` (stereo partly drawn) [Compound A156, 2-(cyanomethyl)-7-((2S,5R)-5-ethyl-2-methyl-4-(1-(quinoxalin-6-yl)ethyl)piperazin-1-yl)-4-methyl-5-oxo-4,5-dihydro-2H-pyrazolo[4,3-b]pyridine-6-carbonitrile], the IC50 came to 1750 nM in assay [1] and 18 nM in assay [2].

For the compound `CC(c1ccc2c(c1)OCCO2)N1C[C@H](C)N(c2cc(=O)n(C)c3cn(CC#N)nc23)C[C@H]1C` (single isomer, unassigned) [Compound A43b], the IC50 in assay [1] was determined as 6570 nM; in assay [2] it was 50 nM.

As to `CC[C@H]1CN(C(C)c2ccc(C3CC3)nc2)[C@H](CC)CN1c1cc(=O)n(C)c2cn(CC#N)nc12` (stereo partly drawn) [Compound A350, 2-(7-((2S,5R)-4-(1-(6-cyclopropylpyridin-3-yl)ethyl)-2,5-diethylpiperazin-1-yl)-4-methyl-5-oxo-4,5-dihydro-2H-pyrazolo[4,3-b]pyridin-2-yl)acetonitrile], the values for the IC50 in assay [1] and in assay [2] were 945 nM and 249 nM, respectively.

Take `CCC(c1ccc(C(C)(C)C#N)cc1)N1C[C@H](CC)N(c2cc(=O)n(C)c3cn(CC#N)nc23)C[C@H]1CC` (stereo partly drawn) [Compound A339, 2-(4-(1-((2R,5S)-4-(2-(cyanomethyl)-4-methyl-5-oxo-4,5-dihydro-2H-pyrazolo[4,3-b]pyridin-7-yl)-2,5-diethylpiperazin-1-yl)propyl)phenyl)-2-methylpropanenitrile]: the figures for the IC50 in assay [1] and in assay [2] were 5360 nM and 361 nM, respectively.

Take `CC[C@H]1CN(C(C)c2ccc3nccnc3c2)[C@H](CC)CN1c1cc(=O)n(C)c2cn(CC#N)nc12` (single isomer, unassigned) [Compound A28a]: the IC50 stood at 490 nM in assay [1] and 7.6 nM in assay [2].

For the compound `Cc1cc2cc(C(C)N3C[C@H](C)N(c4cc(=O)n(C)c5cn(CC#N)nc45)C[C@H]3C)ccc2cn1` (mixture of isomers) [Compound A304, 2-(7-((2S,5R)-2,5-dimethyl-4-(1-(3-methylisoquinolin-6-yl)ethyl)piperazin-1-yl)-4-methyl-5-oxo-4,5-dihydro-2H-pyrazolo[4,3-b]pyridin-2-yl)acetonitrile], the figures for the IC50 in assay [1] and in assay [2] were 3660 nM and 763 nM, respectively.

Take `CC(c1ccc(CN2CCOC(C)(C)C2)cc1)N1C[C@H](C)N(c2cc(=O)n(C)c3cn(CC#N)nc23)C[C@H]1C` (stereo partly drawn) [Compound A341, 2-(7-((2S,5R)-4-(1-(4-((2,2-dimethylmorpholino)methyl)phenyl)ethyl)-2,5-dimethylpiperazin-1-yl)-4-methyl-5-oxo-4,5-dihydro-2H-pyrazolo[4,3-b]pyridin-2-yl)acetonitrile]: the figures for the IC50 in assay [1] and in assay [2] were 1620 nM and 4250 nM, respectively.

For the compound `CC#CCn1cc2c(n1)c(N1C[C@@H](C)N([C@@H](C)c3ccc4ncc(C)nc4c3)C[C@@H]1C)cc(=O)n2C` [Compound A336], the IC50 came to 1570 nM in assay [1] and 60 nM in assay [2].

Consider `CC[C@@H]1CN(c2cc(=O)n(C)c3cn(CC(F)F)nc23)[C@@H](C)CN1C(C)c1ccc2nccnc2c1` (single isomer, unassigned) [Compound A222b], for which the IC50 in assay [1] is 7420 nM; in assay [2], over 10000 nM.

With `CC[C@@H]1CN(c2cc(=O)n(C)c3cn(CC#N)nc23)[C@@H](CC)CN1Cc1ccc(F)cc1C(F)(F)F` [Compound A241], the 50% inhibitory concentration (IC50) in assay [1] was 6430 nM; in assay [2], 270 nM.

With `CC[C@H]1CN(C2CCc3ccccc32)[C@H](CC)CN1c1cc(=O)n(C)c2cn(CC#N)nc12` (single isomer, unassigned) [Compound A149a], the figures for the IC50 in assay [1] and in assay [2] were 4120 nM and 4160 nM, respectively.

Regarding `CC[C@H]1CN(C(C)c2ncc(Cl)n2CC)[C@H](CC)CN1c1cc(=O)n(C)c2cn(CC#N)nc12` (single isomer, unassigned) [Compound A187a], the IC50 stood at 5740 nM in assay [1] and 5920 nM in assay [2].

In the case of `CC(c1ccc2ncc(O)nc2c1)N1C[C@H](C)N(c2cc(=O)n(C)c3cn(CC#N)nc23)C[C@H]1C` (stereo partly drawn) [Compound A279, 2-(7-((2S,5R)-4-(1-(3-hydroxyquinoxalin-6-yl)ethyl)-2,5-dimethylpiperazin-1-yl)-4-methyl-5-oxo-4,5-dihydro-2H-pyrazolo[4,3-b]pyridin-2-yl)acetonitrile], the IC50 in assay [1] and in assay [2] was over 10000 nM in each case.

Take `CC[C@@H]1CN(c2cc(=O)n(C)c3cn(CC#N)nc23)CCN1C(C)c1ccc2nccnc2c1` (single isomer, unassigned) [Compound A161b]: the IC50 in assay [1] came to 78200 nM; in assay [2] it was 93 nM.

On to `CC[C@H]1CN(C(C)c2ccc3nccnc3c2)[C@H](CC)CN1c1cc(=O)n(C)c2cn(CC#N)nc12` (mixture of isomers) [Compound A28, 2-(7-((2S,5R)-2,5-diethyl-4-(1-(quinoxalin-6-yl)ethyl)piperazin-1-yl)-4-methyl-5-oxo-4,5-dihydro-2H-pyrazolo[4,3-b]pyridin-2-yl)acetonitrile], for which the IC50 in assay [1] was found to be 310 nM; in assay [2], 6.7 nM.

Regarding `CC(c1ccc2nccnc2c1)N1C[C@H](C)N(c2cc(=O)n(C)c3cn(CCO)nc23)C[C@H]1C` (some centres unmarked) [Compound A9], the 50% inhibitory concentration (IC50) is 27000 nM in assay [1] and 30000 nM in assay [2].

On to `COCc1cc(F)ccc1C(C)N1C[C@H](C)N(c2cc(=O)n(C)c3cn(CC#N)nc23)C[C@H]1C` (single isomer, unassigned) [Compound A29b], for which the IC50 amounted to 4060 nM in assay [1] and 57 nM in assay [2].

Take `CC[C@H]1CN(C(C)c2ccc3nccnc3c2)[C@H](C)CN1c1cc(=O)n(C)c2cn(CC#N)nc12` (single isomer, unassigned) [Compound A98a]: the results for the IC50 in assay [1] and in assay [2] were 1060 nM and 15 nM, respectively.

Take `Cc1cnc2ccc([C@H](C)N3C[C@H](C)N(c4cc(=O)[nH]c5cn(CC#N)nc45)C[C@H]3C)cc2n1` [Compound A308]: the results for the IC50 in assay [1] and in assay [2] were 88300 nM and 72 nM, respectively.

For the compound `CC[C@@H]1CN(c2cc(=O)n(C)c3cn(CC(F)F)nc23)[C@@H](C)CN1C(C)c1ccc2nccnc2c1` (single isomer, unassigned) [Compound A222a], the results for the IC50 in assay [1] and in assay [2] were 5250 nM and 452 nM, respectively.

As for `CC(c1ccc2nccnc2c1)N1C[C@H](C)N(c2cc(=O)n(C)c3cn(CC#N)nc23)C[C@H]1CO` (stereo partly drawn) [Compound A99, 2-(7-((2S,5S)-5-(hydroxymethyl)-2-methyl-4-(1-(quinoxalin-6-yl)ethyl)piperazin-1-yl)-4-methyl-5-oxo-4,5-dihydro-2H-pyrazolo[4,3-b]pyridin-2-yl)acetonitrile], the IC50 in assay [1] was over 10000 nM; in assay [2], 2790 nM.

As to `CC#CCn1cc2c(n1)c(N1C[C@@H](CC)N(C(C)c3cnc4ccccc4n3)C[C@@H]1C)cc(=O)n2C` (single isomer, unassigned) [Compound A394b], the figures for the IC50 in assay [1] and in assay [2] were 30 nM and 125 nM, respectively.

In the case of `CC[C@H]1CN(C(C)c2ccncn2)[C@H](CC)CN1c1cc(=O)n(C)c2cn(CC#N)nc12` (some centres unmarked) [Compound A131], the IC50 in assay [1] was 287 nM; in assay [2], 8990 nM.

Consider `C[C@@H]1CN(c2nc(=O)n(C)c3c(Cl)n(CC#N)nc23)[C@@H](C)CN1[C@H](C)c1ccc2nccnc2c1` [Compound A245, 2-(3-chloro-7-((2S,5R)-2,5-dimethyl-4-((R)-1-(quinoxalin-6-yl)ethyl)piperazin-1-yl)-4-methyl-5-oxo-4,5-dihydro-2H-pyrazolo[4,3-d]pyrimidin-2-yl)acetonitrile, or 2-(3-chloro-7-((2S,5R)-2,5-dimethyl-4-((S)-1-(quinoxalin-6-yl)ethyl)piperazin-1-yl)-4-methyl-5-oxo-4,5-dihydro-2H-pyrazolo[4,3-d]pyrimidin-2-yl)acetonitrile], for which the IC50 in assay [1] was over 10000 nM; in assay [2], 87 nM.

`CC[C@H]1CN(C(C)c2ccc(C(=O)N3CCC(F)(F)CC3)cc2)[C@H](CC)CN1c1cc(=O)n(C)c2cn(CC#N)nc12` (some centres unmarked) [Compound A382]: the half-maximal inhibitory concentration (IC50) worked out at 79 nM in assay [1] and 499 nM in assay [2].

On to `CC(c1ccc2nccnc2c1)N1C[C@H](C)N(c2cc(=O)n(C)c3cn(C4CC4)nc23)C[C@H]1C` (stereo partly drawn) [Compound A17, 2-cyclopropyl-7-((2S,5R)-2,5-dimethyl-4-(1-(quinoxalin-6-yl)ethyl)piperazin-1-yl)-4-methyl-2,4-dihydro-5H-pyrazolo[4,3-b]pyridin-5-one], for which the values for the IC50 in assay [1] and in assay [2] were 9000 nM and 13000 nM, respectively.

Regarding `CC[C@@H]1CN(c2cc(=O)n(C)c3cn(CC#N)nc23)[C@@H](C)CN1C(C)c1ccc2nccnc2c1` (single isomer, unassigned) [Compound A97a], the IC50 in assay [1] worked out at 3380 nM; in assay [2], 8.6 nM.

Regarding `CC[C@H]1CN(C(C)c2cccc(CO)c2)[C@H](CC)CN1c1cc(=O)n(C)c2cn(CC#N)nc12` (some centres unmarked) [Compound A121b], the IC50 in assay [1] was 4160 nM; in assay [2] it was over 10000 nM.

The term IC50 denotes the concentration at which inhibition is half-maximal.
